PMC6271395, “Synthesis and Biological Activities of Some New (N^α-Dinicotinoyl)-bis-L-Leucyl Linear and Macrocyclic Peptides” (Molecules, 2014)

How the values were obtained:
Bacillus subtilis = test: Agar diffusion antimicrobial test, Bacillus subtilis; assay type: cell-based; details: Gram+ve, modified Kirby–Bauer disk diffusion, 10 µg/mL
Experimental: (§1) The newly synthesized compounds 3–12 were tested for their preliminary antimicrobial activity against different microorganisms representing Gram-positive (Bacillus subtilis, Bacillus aureus and Staphylococcus aureus), Gram-negative bacteria (Escherichia coli), yeast (Candida albican) and fungi (Aspergillus niger).
(§2) The antimicrobial activities of the synthesized compounds were determined by the agar diffusion method as recommended by the national committee for clinical laboratory standards (NCCLS). The concentrations of the tested compounds (10 µg/mL) were used according to modified Kirby–Bauer’s disk diffusion method. The degree of inhibition is measured in comparison with that of chloramphinicol and fusidic acid taken as standards.

Bacillus aureus = test: Agar diffusion antimicrobial test, Bacillus aureus; assay type: cell-based; details: Gram+ve, modified Kirby–Bauer disk diffusion, 10 µg/mL
Experimental: as §1, §2

Staphylococcus aureus = test: Agar diffusion antimicrobial test, Staphylococcus aureus; assay type: cell-based; details: Gram+ve, modified Kirby–Bauer disk diffusion, 10 µg/mL
Experimental: as §1, §2

Escherichia coli = test: Agar diffusion antimicrobial test, Escherichia coli; assay type: cell-based; details: Gram−ve, modified Kirby–Bauer disk diffusion, 10 µg/mL
Experimental: as §1, §2

Candida albicans = test: Agar diffusion antimicrobial test, Candida albicans; assay type: cell-based; details: Yeast, modified Kirby–Bauer disk diffusion, 10 µg/mL
Experimental: as §1, §2

Aspergillus niger = test: Agar diffusion antimicrobial test, Aspergillus niger; assay type: cell-based; details: Fungi, modified Kirby–Bauer disk diffusion, 10 µg/mL
Experimental: as §1, §2

[1] = test system: carrageenan-induced edema; test: Carrageenan-induced edema (rat paw test); assay type: in vivo; details: one hour before carrageenan, male albino rats, eight animals per group, paws excised four hours after drug administration
Experimental: (§3) For the determination of the antiphlogistic potency of the synthesized compounds, two standard tests were realized at a dose level 2.5 and 5 mg/kg body weight of the rats, namely the protection against carrageenan-induced edema according to Winter et al. and the inhibition of plasma PGE2. The latter is known as a good confirming indicator for carrageenan-induced rat paw edema. […] For these compounds, a similar activity profile was realized for the inhibition of plasma PGE2.
(§4) Groups of adult male albino rats (150–180 g), each of eight animals were orally dosed with tested compounds at a dose level of 2.5–5 mg/kg one hour before carrageenan challenge. Foot paw edema was induced by subplantar injection of 0.05 cm^3 of a 1% suspension of carrageenan in saline into the plantar tissue of one hind paw. An equal volume of saline was injected to the other hand paw and served as control. Four hours after drug administration the animals were decapitated, blood was collected, and the paws were rapidly excised. The average weight of edema was examined for the treated as well as the control group and the percentage inhibition of weight of edema was also evaluated. Diclofenac potassium (5 mg/kg) was employed as standard reference against which the tested compounds were compared (Table 2).

plasma PGE2 = test: Inhibition of plasma PGE2 (EIA) in carrageenan-challenged rats; assay type: in vivo, rat; details: rats n = 8, blood four hours after drug administration, PGE2 EIA kit
Experimental: as §3, §4
Heparinized blood samples were collected from rats (n = 8), plasma was separated by centrifugation at 12,000 g for 2 min at […], immediately frozen, and stored at […] until use. The design correlate EIA prostaglandin E2 (PGE2) kit (Aldrich, Steinheim, Germany) is a competitive immuno assay for the quantitative determination of PGE2 in biological fluids. The kit uses a monoclonal antibody to PGE2 to bind, in a competitive manner, the PGE2 in the sample after a simultaneous incubation at room temperature. The excess reagents were washed away and the substrate was added, after a short incubation time the enzyme reaction was stopped, and the yellow color generated was read on a microplate reader DYNATech, MR 5000 at 405 nm (Dynatech Industries Inc., McLean, VA, USA). The intensity of the bound yellow color is inversely proportional to the concentration of PGE2 in either standard or samples.

Compound	Inhibition Zome, Bacillus subtilis (Bacillus subtilis)	Inhibition Zome, Bacillus aureus (Bacillus aureus)	Inhibition Zome, Staphylococcus aureus (Staphylococcus aureus)	Inhibition Zome, Escherichia coli (Escherichia coli)	Inhibition Zome, Candida albicans (Candida albicans)	Inhibition Zome, Aspergillus niger (Aspergillus niger)	% Protection against Edema ([1]; dose 2.5 mg/kg oral)	% Protection against Edema ([1]; dose 5.0 mg/kg oral)	% Inhibition of Plasma PGE2 (plasma PGE2; dose 2.5 mg/kg oral)	% Inhibition of Plasma PGE2 (plasma PGE2; dose 5.0 mg/kg oral)
C/C(=N\NC(=O)[C@H](CC(C)C)NC(=O)c1cncc(C(=O)N[C@@H](CC(C)C)C(=O)N/N=C(\C)c2ccc(Cl)cc2)c1)c1ccc(Cl)cc1 [Compound 9a]	1.84 cm	1.88 cm	1.76 cm	0.92 cm	1.10 cm	2.01 cm	82.16 ± 0.076%	93.16 ± 0.064%	58.96 ± 0.024%	74.58 ± 0.040%
CC(C)C[C@H](NC(=O)c1cncc(C(=O)N[C@@H](CC(C)C)C(=O)N/N=C/c2ccccc2)c1)C(=O)N/N=C/c1ccccc1 [Compound 10a]	1.56 cm	1.45 cm	1.56 cm	0.66 cm	–	1.68 cm	90.32 ± 0.035%	99.10 ± 0.036%	62.12 ± 0.051%	83.01 ± 0.049%
2,6-Bis {N-[1-{(2E)-2-[1-(4-nitrophenyl)ethylidene]hydrazinyl}-4-methyl-1-oxopentan]-3-carboxamido}pyridine [Compound 9c]	1.72 cm	1.22 cm	1.66 cm	0.60 cm	–	1.76 cm	–	–	–	–
2,6-Bis {N-{(2R)-1-[2-(4-methoxybenzylidene)hydrazinyl]-4-methyl-1-oxopentan]-3-carboxamido}-pyridine [Compound 10c]	1.76 cm	1.56 cm	1.64 cm	0.80 cm	1.00 cm	1.95 cm	–	–	–	–
2,6-Bis[(N-[4-methyl-1-(1H-benzo[de]isoquinoline-1,3(2H)-dion)-pentan]-3-carboxamido]pyridine [Compound 8]	1.90 cm	1.94 cm	1.95 cm	0.90 cm	0.98 cm	2.00 cm	78.88 ± 0.090%	92.00 ± 0.060%	57.57 ± 0.045%	76.00 ± 0.035%
O=C([O-])Cc1ccccc1Nc1c(Cl)cccc1Cl.[K+] [Diclofenac Potassium, reference compound]	–	–	–	–	–	–	70.14 ± 0.064%	75.23 ± 0.083%	54.00 ± 0.041%	70.00 ± 0.051%
CC(C)C[C@@H]1NC(=O)c2cncc(c2)C(=O)N[C@@H](CC(C)C)C(=O)NN2C(=O)c3ccc4c5c(ccc(c35)C2=O)C(=O)N(NC(=O)[C@H](CC(C)C)NC(=O)c2cncc(c2)C(=O)N[C@@H](CC(C)C)C(=O)NN2C(=O)c3ccc5c6c(ccc(c36)C2=O)C(=O)N(NC1=O)C5=O)C4=O [Compound 12]	1.65 cm	1.83 cm	1.65 cm	0.64 cm	–	1.58 cm	90.48 ± 0.090%	99.36 ± 0.080%	63.16 ± 0.036%	86.18 ± 0.071%
COC(=O)[C@H](CC(C)C)NC(=O)c1cncc(C(=O)N[C@@H](CC(C)C)C(=O)OC)c1 [Compound 3, 3,5-Bis-(Methyl L-Leucenylcarbonyl)pyridine carboxylate]	1.46 cm	1.65 cm	1.76 cm	0.62 cm	–	1.78 cm	86.16 ± 0.052%	98.18 ± 0.053%	59.45 ± 0.050%	81.10 ± 0.056%
COC(=O)[C@@H]1CCCCNC(=O)[C@H](CC(C)C)NC(=O)c2cncc(c2)C(=O)N[C@@H](CC(C)C)C(=O)N1 [Compound 6, Cyclo-(Na-dinicotinoyl)-bis-(L-leucyl)-L-lysine methyl ester]	1.82 cm	1.50 cm	1.54 cm	0.65 cm	–	1.75 cm	92.14 ± 0.076%	99.08 ± 0.062%	84.18 ± 0.052%	86.01 ± 0.030%
O=C(N[C@H](CO)[C@H](O)c1ccc([N+](=O)[O-])cc1)C(Cl)Cl [Chloramphenicol, reference compound]	2.00 cm	2.10 cm	2.00 cm	0.95 cm	–	–	–	–	–	–
2,6-Bis {N-{(2R)-1-[2-(4-chlorobenzylidene)hydrazinyl]-4-methyl-1-oxopentan]-3-carboxamido}-pyridine [Compound 10e]	1.65 cm	1.96 cm	1.80 cm	0.78 cm	0.94 cm	1.48 cm	–	–	–	–
CC(C)C[C@H](NC(=O)c1cncc(C(=O)N[C@@H](CC(C)C)C(=O)O)c1)C(=O)O [Compound 5, N,N′-Bis(1-Carboxy-2-L-leucyl)-3,5-(diaminocarbonyl)pyridine]	1.68 cm	1.14 cm	1.76 cm	0.64 cm	–	1.72 cm	85.14 ± 0.056%	96.18 ± 0.067%	61.16 ± 0.041%	77.14 ± 0.036%
2,6-Bis[(N-[4-methyl-1-(4,5,6,7-tetrachloro-1H-isoindole-1,3(2H)-dion)-pentan]-3-carboxamido]-pyridine [Compound 7b]	1.46 cm	1.80 cm	1.45 cm	0.66 cm	–	1.95 cm	–	–	–	–
2,6-Bis {N-{(2R)-1-[2-(4-methylbenzylidene)hydrazinyl]-4-methyl-1-oxopentan]-3-carboxamido}-pyridine [Compound 10b]	1.80 cm	1.95 cm	1.85 cm	0.78 cm	0.95 cm	1.56 cm	–	–	–	–
CC(=O)O[C@H]1C[C@@]2(C)[C@@H](C[C@@H](O)[C@H]3[C@@]4(C)CC[C@@H](O)[C@@H](C)[C@@H]4CC[C@@]32C)/C1=C(\CCC=C(C)C)C(=O)O [Fusidic Acid, reference compound]	–	–	–	–	1.9 cm	1.9 cm	–	–	–	–
